For one compound, LD50 results are on record in US4160028A, “Substituted 2-cyclopropyl-chromones and pharmaceutical compositions and use thereof” (Carlo Erba S.p.A., priority 1977, dated 1979).

The data set is described as follows: seven days indicative acute toxicity after oral administration. Conditions: rat, in vivo, rats. The method, then: Seven days indicative acute toxicity after oral administration was assessed for the compounds of the invention. For example, for the compound identified by the code K 13262, a LD50 >400 mg/kg in rats was obtained.

As usually defined, the LD50 is the dose at which mortality reaches 50%. As to `CCCc1c([C@@H]2C[C@H]2c2ccccc2)oc2ccc(C(=O)O)cc2c1=O` (relative stereo) [K 13262, trans 6-carboxy-3-propyl-2-(2-phenyl-cyclopropyl)-chromone], the LD50 at 168 h is more than 400 mg/kg.
